According to US6927214B1 (Novo Nordisk A/S, priority 1999, dated 2005):
pEC50: −log10 of the molar value.

system: not given; experiment: not given; details: not given

| melting point [°C] | Structure (SMILES) |
| --- | --- |
| 160 to 162 | Cc1nnc(Sc2nc3ccc(C(=O)c4ccccc4)cc3nc2C(F)(F)F)s1 [Example 158, [2-(5-Methyl-[1,3,4]thiadiazol-2-ylsulfanyl)-3-trifluorophenylquinoxalin-6-yl]phenyl Methanone] |

biological target: T1, human GLP-1 receptor (Homo sapiens, UniProt P43220); experiment: Saturation experiments with labelled GLP-1 tracer on plasma membranes, with or without example 2; type: binding; parameters: expressed in transfected cells; host or cells: BHK (baby hamster kidney) cells; plasma membranes prepared from them; details: 10 μM compound, saturation experiment
T1 sequence (P43220 24-463): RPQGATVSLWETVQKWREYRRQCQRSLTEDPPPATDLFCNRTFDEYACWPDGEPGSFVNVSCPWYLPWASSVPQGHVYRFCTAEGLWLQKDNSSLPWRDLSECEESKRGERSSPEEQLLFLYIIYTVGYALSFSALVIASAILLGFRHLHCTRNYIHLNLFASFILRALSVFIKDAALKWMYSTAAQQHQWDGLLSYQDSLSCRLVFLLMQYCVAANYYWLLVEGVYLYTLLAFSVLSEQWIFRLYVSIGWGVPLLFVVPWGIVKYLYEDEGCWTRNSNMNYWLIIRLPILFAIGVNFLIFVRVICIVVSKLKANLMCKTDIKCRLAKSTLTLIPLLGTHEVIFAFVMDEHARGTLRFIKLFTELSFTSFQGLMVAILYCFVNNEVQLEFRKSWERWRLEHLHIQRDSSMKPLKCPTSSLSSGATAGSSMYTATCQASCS

| Structure (SMILES) | effect on the affinity of the receptor for GLP-1 |
| --- | --- |
| Cc1nnc(Sc2nc3cc(Cl)c(Cl)cc3nc2C(F)(F)F)s1 [Example 2, 6,7-Dichloro-2-trifluoromethyl-3-(5-methyl-1,3,4-thiadiazol-2-ylsulfanyl)quinoxaline] | changed the affinity of the receptor for GLP-1 |

biological target: T1, human GLP-1 receptor; experiment: not given; parameters: Emax: dose or concentration left out as unconfirmed; details: not given

| pEC50 | Emax [%] | Structure (SMILES) |
| --- | --- | --- |
| 6.51 | 100 | Cc1nnc(Sc2nc3cc(Cl)c(Cl)cc3nc2C(F)(F)F)s1 [Example 2, 6,7-Dichloro-2-trifluoromethyl-3-(5-methyl-1,3,4-thiadiazol-2-ylsulfanyl)quinoxaline] |
| 6.77 | 94 | Cc1nnc([S+]([O-])c2nc3cc(Cl)c(Cl)cc3nc2C(C)C)s1 (stereo not shown) [Example 6, 6,7-Dichloro-2-isopropyl-3-(5-methyl-1,3,4-thiadiazol-2-ylsulfinyl)quinoxaline] |
| 7.11 | 120 | Cc1nnc(S(=O)(=O)c2nc3cc(Cl)c(Cl)cc3nc2C(C)C)s1 [Example 7, 6,7-Dichloro-2-isopropyl-3-(5-methyl-1,3,4-thiadiazol-2-ylsulfonyl)quinoxaline] |
| 6.80 | 120 | CS(=O)(=O)c1nc2cc(Cl)c(Cl)cc2nc1C(F)(F)F [Example 19, 6,7-Dichloro-2-methanesulfonyl-3-trifluoromethylquinoxaline] |
| 7.17 | 140 | CC(C)S(=O)(=O)c1nc2cc(Cl)c(Cl)cc2nc1C(F)(F)F [Example 20, 6,7-Dichloro-2-trifluoromethyl-3-isopropylsulfonylquinoxaline] |
|  | 15 | O=Cc1cc2cc(Cl)ccc2nc1Cl [Example 25, 2,6-Dichloroquinoline-3-carbaldehyde] |
|  | 13 | CSc1nc2ccc(Cl)cc2cc1C=O [Example 29, 6-Chloro-2-methylsulfanylquinoline-3-carbaldehyde] |
| < 4.48 | 0 | Cc1nc2cc(Cl)ccc2nc1Cl [Example 46, 2,6-Dichloro-3-methylquinoxaline] |
| 5.00 | 50 | COc1nc2ccc(Cl)cc2nc1Cl [Example 47, 2,7-Dichloro-3-methoxyquinoxaline] |
| 7.11 | 130 | Cc1nc2cc(Cl)c(Cl)cc2nc1S(C)(=O)=O [Example 56, 6,7-Dichloro-3-methyl-2-(methylsulfonyl)quinoxaline] |

biological target: T2, human glucagon receptor (Homo sapiens, UniProt P47871); experiment: Stimulation of cAMP formation in a cell line expressing the cloned human glucagon receptor; type: biochemical; details: concentrations tested up to 100 μM
T2 construct: expressed in transfected cells
T2 sequence (P47871 26-477): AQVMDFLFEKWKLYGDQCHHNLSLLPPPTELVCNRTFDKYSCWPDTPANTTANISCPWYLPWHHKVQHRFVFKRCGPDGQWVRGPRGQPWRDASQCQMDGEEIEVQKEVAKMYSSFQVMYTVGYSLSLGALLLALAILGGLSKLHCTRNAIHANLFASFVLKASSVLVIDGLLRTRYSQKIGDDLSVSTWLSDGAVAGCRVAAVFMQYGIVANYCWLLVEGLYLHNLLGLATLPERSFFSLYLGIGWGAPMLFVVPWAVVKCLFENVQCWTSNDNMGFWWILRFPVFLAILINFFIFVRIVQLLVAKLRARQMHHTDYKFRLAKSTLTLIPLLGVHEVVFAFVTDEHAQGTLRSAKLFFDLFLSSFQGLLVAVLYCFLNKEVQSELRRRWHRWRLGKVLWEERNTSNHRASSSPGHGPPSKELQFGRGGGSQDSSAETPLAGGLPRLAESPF

| agonist activity (cAMP formation) | Structure (SMILES) |
| --- | --- |
| no measurable activity | Cc1nnc(Sc2nc3cc(Cl)c(Cl)cc3nc2C(F)(F)F)s1 [Example 2, 6,7-Dichloro-2-trifluoromethyl-3-(5-methyl-1,3,4-thiadiazol-2-ylsulfanyl)quinoxaline] |

biological target: T1, human GLP-1 receptor; experiment: biochemical; details: not given

| pEC50 | Emax [%] | Emax at 1 µM [%] | Emax at 0.01 µM [%] | Emax at 3.3 µM [%] | Structure (SMILES) | Emax at 0.33 µM [%] |
| --- | --- | --- | --- | --- | --- | --- |
| 6.19 | 53 |  |  |  | CC(C)c1nc2cc(Cl)c(Cl)cc2nc1S(=O)(=O)c1cncn1C [Example 65, 6,7-Dichloro-2-isopropyl-3-(1-methyl-1H-imidazol-5-ylsulfonyl)quinoxaline] |  |
| 6.11 | 53 |  |  |  | CCCc1nc2cc(Cl)c(Cl)cc2nc1S(C)(=O)=O [Example 92, 6,7-Dichloro-2-(methylsulfonyl)-3-propylquinoxaline] |  |
| 7.30 | 80 |  |  |  | CC(C)(C)Nc1nc2cc(Cl)c(Cl)cc2nc1S(C)(=O)=O [Example 103, N-[6,7-Dichloro-3-(methylsulfonyl)-2-quinoxalinyl]N-tert-butylamine] |  |
| 6.17 | 54 |  |  |  | CS(=O)(=O)c1nc2cc(Cl)c(Cl)cc2nc1NC1CCCc2ccccc21 (stereo not shown) [Example 108, N-[6,7-Dichloro-3-(methylsulfonyl)-2-quinoxalinyl]-N-(1,2,3,4-tetrahydro-naphthalene-1-yl)amine] |  |
| 6.54 | 76 |  |  |  | CCC(C)(C)Nc1nc2cc(Cl)c(Cl)cc2nc1S(C)(=O)=O [Example 135, (6,7-Dichloro-3-(methylsulfonyl)═quinoxalin-2-yl)tert-pentylamine] |  |
| 6.09 | 64 |  |  |  | CC(C)Nc1nc2cc(Cl)c(Cl)cc2nc1S(=O)(=O)Cc1ccc(OC(F)F)cc1 [Example 136, (6,7-Dichloro-3-{[4-(difluoromethoxy)benzyl]sulfonyl}quinoxalin-2-yl)isopropylamine] |  |
| 6.18 | 46 |  |  |  | CC(C)Sc1nc2cc(Cl)c(Cl)cc2nc1S(C)(=O)=O [Example 137, 6,7-Dichloro-2-(isopropylsulfanyl)-3-(methylsulfonyl)quinoxaline] |  |
| 6.27 | 72 |  |  |  | Cn1ccnc1S(=O)(=O)c1nc2cc(Cl)c(Cl)cc2nc1NC(C)(C)C [Example 138, (6,7-Dichloro-3-[(1-methyl-1H-imidazol-2-yl)sulfonyl]quinoxalin-2-yl)-tert-butylamine] |  |
|  |  |  |  |  | O=[N+]([O-])c1cc2nc(-c3ccccc3)c(C(F)(F)F)nc2cc1[N+](=O)[O-] [Example 145, 6,7-Dinitro-2-phenyl-3-trifluoromethylquinoxaline] | 36 |
|  |  |  | 42 |  | FC(F)(F)c1nc2cc(Cl)c(Cl)cc2nc1Sc1nccs1 [Example 156, 6,7-Dichloro-2-(thiazol-2-ylsulfanyl)-3-trifluoromethyl-quinoxaline] |  |
|  |  |  |  | 15 | O=C(c1ccccc1)c1ccc2nc(Br)c(C(F)(F)F)nc2c1 [Example 157, (2-Bromo-3-trifluoromethyl-quinoxalin-6-yl)phenyl Methanone] |  |
|  |  | 19 |  |  | CC(C)CCS(=O)(=O)c1nc2cc(Cl)ccc2nc1C(F)(F)F [Example 169, 6-Chloro-3-(3-methylbutylsulfonyl)-2-trifluoromethyl-quinoxaline] |  |
|  |  | 33 |  |  | CC(C)CCS(=O)(=O)c1nc2ccc(Cl)cc2nc1C(F)(F)F [Example 170, 6-Chloro-2-(3-methylbutyl-1-sulfonyl)-3-trifluoromethyl-quinoxaline] |  |

| Structure (SMILES) | pEC50 | Emax [%] | Emax at 1 µM [%] | Emax at 0.01 µM [%] | Emax at 3.3 µM [%] | Emax at 0.33 µM [%] |
| --- | --- | --- | --- | --- | --- | --- |
| O=[N+]([O-])c1cc2ncc(-c3ccc(C(F)(F)F)cc3)nc2cc1[N+](=O)[O-] [Example 147, 6,7-Dinitro-2-(4-trifluoromethylphenyl)quinoxaline] |  |  | 31 |  |  |  |
